# From the supplement of paper PMC10307832
# Legend:
# Experiment in all cases: relative viability (nuclei count vs DMSO), 5 days (fraction); higher = more cells survive
# EHT 1864 + Decitabine = compound: C1COCCN1CC2=CC(=O)C(=CO2)OCCCCCSC3=C4C=CC(=CC4=NC=C3)C(F)(F)F [EHT 1864] + Nc1ncn([C@H]2C[C@H](O)[C@@H](CO)O2)c(=O)n1 [Decitabine] (partner 2 µM)
# Summary of the method: (§1)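 Five library-drug doses in √10 steps were combined with a fixed anchor-drug dose, or a single drug was given alone, by pin tool to lung cancer cell lines in 1536-well plates the day after seeding. Nuclei were stained and counted after 5 days. Relative viability is the nuclei count in treated wells over that in vehicle wells, taken as the median of duplicate plates.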
# EHT 1864 + Navitoclax = compound: C1COCCN1CC2=CC(=O)C(=CO2)OCCCCCSC3=C4C=CC(=CC4=NC=C3)C(F)(F)F [EHT 1864] + CC1(C)CCC(c2ccc(Cl)cc2)=C(CN2CCN(c3ccc(C(=O)NS(=O)(=O)c4ccc(N[C@H](CCN5CCOCC5)CSc5ccccc5)c(S(=O)(=O)C(F)(F)F)c4)cc3)CC2)C1 [Navitoclax] (partner 0.5 µM)
# Summary of the method: as §1
# EHT 1864 + Olaparib = compound: C1COCCN1CC2=CC(=O)C(=CO2)OCCCCCSC3=C4C=CC(=CC4=NC=C3)C(F)(F)F [EHT 1864] + O=C(c1cc(Cc2n[nH]c(=O)c3ccccc23)ccc1F)N1CCN(C(=O)C2CC2)CC1 [Olaparib] (partner 8 µM)
# Summary of the method: as §1
# EHT 1864 + Crizotinib = compound: C1COCCN1CC2=CC(=O)C(=CO2)OCCCCCSC3=C4C=CC(=CC4=NC=C3)C(F)(F)F [EHT 1864] + C[C@@H](Oc1cc(-c2cnn(C3CCNCC3)c2)cnc1N)c1c(Cl)ccc(F)c1Cl [Crizotinib] (partner 1 µM)
# Summary of the method: as §1
# EHT 1864 + Linsitinib = compound: C1COCCN1CC2=CC(=O)C(=CO2)OCCCCCSC3=C4C=CC(=CC4=NC=C3)C(F)(F)F [EHT 1864] + C[C@]1(O)C[C@@H](c2nc(-c3ccc4ccc(-c5ccccc5)nc4c3)c3c(N)nccn32)C1 [Linsitinib] (partner 1 µM)
# Summary of the method: as §1
# EHT 1864 + Phenformin = compound: C1COCCN1CC2=CC(=O)C(=CO2)OCCCCCSC3=C4C=CC(=CC4=NC=C3)C(F)(F)F [EHT 1864] + N=C(N)NC(=N)NCCc1ccccc1 [Phenformin] (partner 250 µM)
# Summary of the method: as §1
# EHT 1864 + Lapatinib = compound: C1COCCN1CC2=CC(=O)C(=CO2)OCCCCCSC3=C4C=CC(=CC4=NC=C3)C(F)(F)F [EHT 1864] + CS(=O)(=O)CCNCc1ccc(-c2ccc3ncnc(Nc4ccc(OCc5cccc(F)c5)c(Cl)c4)c3c2)o1 [Lapatinib] (partner 2 µM)
# Summary of the method: as §1
# EHT 1864 + Alpelisib = compound: C1COCCN1CC2=CC(=O)C(=CO2)OCCCCCSC3=C4C=CC(=CC4=NC=C3)C(F)(F)F [EHT 1864] + Cc1nc(NC(=O)N2CCC[C@H]2C(N)=O)sc1-c1ccnc(C(C)(C)C(F)(F)F)c1 [Alpelisib] (partner 2 µM)
# Summary of the method: as §1
# EHT 1864 + Foretinib = compound: C1COCCN1CC2=CC(=O)C(=CO2)OCCCCCSC3=C4C=CC(=CC4=NC=C3)C(F)(F)F [EHT 1864] + COc1cc2c(Oc3ccc(NC(=O)C4(C(=O)Nc5ccc(F)cc5)CC4)cc3F)ccnc2cc1OCCCN1CCOCC1 [Foretinib] (partner 0.25 µM)
# Summary of the method: as §1
# EHT 1864 + Pictilisib = compound: C1COCCN1CC2=CC(=O)C(=CO2)OCCCCCSC3=C4C=CC(=CC4=NC=C3)C(F)(F)F [EHT 1864] + CS(=O)(=O)N1CCN(Cc2cc3nc(-c4cccc5[nH]ncc45)nc(N4CCOCC4)c3s2)CC1 [Pictilisib] (partner 1 µM)
# Summary of the method: as §1
# EHT 1864 = compound: C1COCCN1CC2=CC(=O)C(=CO2)OCCCCCSC3=C4C=CC(=CC4=NC=C3)C(F)(F)F [EHT 1864]
# Summary of the method: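 On vehicle-anchored 1536-well plates, lung cancer cell lines held overnight at 37 °C were pinned with five library-drug doses (not always all listed) spaced by √10. With no medium change over 5 days, they were then fixed, permeabilised and Hoechst-stained in one step and imaged at 4×. MetaXpress counted nuclei, and viability is the median across plates of treated-well over vehicle-well nuclei. Acceptance needed control CV below 25% and at least one doubling.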
# EHT 1864 + Bortezomib = compound: C1COCCN1CC2=CC(=O)C(=CO2)OCCCCCSC3=C4C=CC(=CC4=NC=C3)C(F)(F)F [EHT 1864] + CC(C)C[C@H](NC(=O)[C@H](Cc1ccccc1)NC(=O)c1cnccn1)B(O)O [Bortezomib] (partner 0.002 µM)
# Summary of the method: as §1
cell line,measurement,setting,value
A549,relative viability,EHT 1864 + Decitabine; first compound 0.04 µM,0.263
same,relative viability,EHT 1864 + Decitabine; first compound 0.1265 µM,0.213
same,relative viability,EHT 1864 + Decitabine; first compound 0.4 µM,0.257
same,relative viability,EHT 1864 + Decitabine; first compound 1.265 µM,0.284
same,relative viability,EHT 1864 + Decitabine; first compound 4 µM,0.323
same,relative viability,EHT 1864 + Navitoclax; first compound 0.04 µM,1.16
same,relative viability,EHT 1864 + Navitoclax; first compound 0.1265 µM,1.2
same,relative viability,EHT 1864 + Navitoclax; first compound 0.4 µM,0.952
same,relative viability,EHT 1864 + Navitoclax; first compound 1.265 µM,1.18
same,relative viability,EHT 1864 + Navitoclax; first compound 4 µM,0.912
same,relative viability,EHT 1864 + Olaparib; first compound 0.04 µM,0.302
same,relative viability,EHT 1864 + Olaparib; first compound 0.1265 µM,0.299
same,relative viability,EHT 1864 + Olaparib; first compound 0.4 µM,0.368
same,relative viability,EHT 1864 + Olaparib; first compound 1.265 µM,0.246
same,relative viability,EHT 1864 + Olaparib; first compound 4 µM,0.428
same,relative viability,EHT 1864 + Crizotinib; first compound 0.04 µM,0.659
same,relative viability,EHT 1864 + Crizotinib; first compound 0.1265 µM,0.739
same,relative viability,EHT 1864 + Crizotinib; first compound 0.4 µM,0.742
same,relative viability,EHT 1864 + Crizotinib; first compound 1.265 µM,0.669
same,relative viability,EHT 1864 + Crizotinib; first compound 4 µM,0.601
same,relative viability,EHT 1864 + Linsitinib; first compound 0.04 µM,0.598
same,relative viability,EHT 1864 + Linsitinib; first compound 0.1265 µM,0.658
same,relative viability,EHT 1864 + Linsitinib; first compound 0.4 µM,0.641
same,relative viability,EHT 1864 + Linsitinib; first compound 1.265 µM,0.599
same,relative viability,EHT 1864 + Linsitinib; first compound 4 µM,0.639
same,relative viability,EHT 1864 + Phenformin; first compound 0.04 µM,0.267
same,relative viability,EHT 1864 + Phenformin; first compound 0.1265 µM,0.14
same,relative viability,EHT 1864 + Phenformin; first compound 0.4 µM,0.186
same,relative viability,EHT 1864 + Phenformin; first compound 1.265 µM,0.0995
same,relative viability,EHT 1864 + Phenformin; first compound 4 µM,0.168
same,relative viability,EHT 1864 + Lapatinib; first compound 0.04 µM,0.927
same,relative viability,EHT 1864 + Lapatinib; first compound 0.1265 µM,0.894
same,relative viability,EHT 1864 + Lapatinib; first compound 0.4 µM,0.996
same,relative viability,EHT 1864 + Lapatinib; first compound 1.265 µM,0.914
same,relative viability,EHT 1864 + Lapatinib; first compound 4 µM,0.625
same,relative viability,EHT 1864 + Alpelisib; first compound 0.04 µM,0.637
same,relative viability,EHT 1864 + Alpelisib; first compound 0.1265 µM,0.735
same,relative viability,EHT 1864 + Alpelisib; first compound 0.4 µM,0.694
same,relative viability,EHT 1864 + Alpelisib; first compound 1.265 µM,0.805
same,relative viability,EHT 1864 + Alpelisib; first compound 4 µM,0.712
same,relative viability,EHT 1864 + Foretinib; first compound 0.04 µM,0.995
same,relative viability,EHT 1864 + Foretinib; first compound 0.1265 µM,0.986
same,relative viability,EHT 1864 + Foretinib; first compound 0.4 µM,0.978
same,relative viability,EHT 1864 + Foretinib; first compound 1.265 µM,0.815
same,relative viability,EHT 1864 + Foretinib; first compound 4 µM,0.714
same,relative viability,EHT 1864 + Pictilisib; first compound 0.1265 µM,0.524
same,relative viability,EHT 1864 + Pictilisib; first compound 0.4 µM,0.416
same,relative viability,EHT 1864 + Pictilisib; first compound 1.265 µM,0.411
same,relative viability,EHT 1864 + Pictilisib; first compound 4 µM,0.461
same,relative viability,EHT 1864; 0.04 µM,0.88
same,relative viability,EHT 1864; 0.1265 µM,0.937
same,relative viability,EHT 1864; 0.4 µM,0.921
same,relative viability,EHT 1864; 1.265 µM,0.948
same,relative viability,EHT 1864; 4 µM,0.883
EBC-1,relative viability,EHT 1864 + Navitoclax; first compound 0.04 µM,0.381
same,relative viability,EHT 1864 + Navitoclax; first compound 0.1265 µM,0.329
same,relative viability,EHT 1864 + Navitoclax; first compound 0.4 µM,0.449
same,relative viability,EHT 1864 + Navitoclax; first compound 1.265 µM,0.431
same,relative viability,EHT 1864 + Navitoclax; first compound 4 µM,0.429
same,relative viability,EHT 1864 + Olaparib; first compound 0.04 µM,0.74
same,relative viability,EHT 1864 + Olaparib; first compound 0.1265 µM,0.689
same,relative viability,EHT 1864 + Olaparib; first compound 0.4 µM,0.671
same,relative viability,EHT 1864 + Olaparib; first compound 1.265 µM,0.696
same,relative viability,EHT 1864 + Olaparib; first compound 4 µM,0.574
same,relative viability,EHT 1864 + Crizotinib; first compound 0.04 µM,0.18
same,relative viability,EHT 1864 + Crizotinib; first compound 0.1265 µM,0.181
same,relative viability,EHT 1864 + Crizotinib; first compound 0.4 µM,0.219
same,relative viability,EHT 1864 + Crizotinib; first compound 1.265 µM,0.205
same,relative viability,EHT 1864 + Crizotinib; first compound 4 µM,0.196
same,relative viability,EHT 1864 + Linsitinib; first compound 0.04 µM,0.883
same,relative viability,EHT 1864 + Linsitinib; first compound 0.1265 µM,0.426
same,relative viability,EHT 1864 + Linsitinib; first compound 0.4 µM,0.914
same,relative viability,EHT 1864 + Linsitinib; first compound 1.265 µM,0.896
same,relative viability,EHT 1864 + Linsitinib; first compound 4 µM,0.99
same,relative viability,EHT 1864 + Bortezomib; first compound 0.04 µM,0.56
same,relative viability,EHT 1864 + Bortezomib; first compound 0.1265 µM,0.524
same,relative viability,EHT 1864 + Bortezomib; first compound 0.4 µM,0.505
same,relative viability,EHT 1864 + Bortezomib; first compound 1.265 µM,0.509
same,relative viability,EHT 1864 + Bortezomib; first compound 4 µM,0.541
same,relative viability,EHT 1864 + Lapatinib; first compound 0.04 µM,0.222
same,relative viability,EHT 1864 + Lapatinib; first compound 0.1265 µM,0.225
same,relative viability,EHT 1864 + Lapatinib; first compound 0.4 µM,0.194
same,relative viability,EHT 1864 + Lapatinib; first compound 1.265 µM,0.19
same,relative viability,EHT 1864 + Lapatinib; first compound 4 µM,0.238
same,relative viability,EHT 1864 + Alpelisib; first compound 0.04 µM,0.843
same,relative viability,EHT 1864 + Alpelisib; first compound 0.1265 µM,0.697
same,relative viability,EHT 1864 + Alpelisib; first compound 0.4 µM,0.886
same,relative viability,EHT 1864 + Alpelisib; first compound 1.265 µM,0.908
same,relative viability,EHT 1864 + Alpelisib; first compound 4 µM,0.881
same,relative viability,EHT 1864 + Foretinib; first compound 0.04 µM,0.0988
same,relative viability,EHT 1864 + Foretinib; first compound 0.1265 µM,0.119
same,relative viability,EHT 1864 + Foretinib; first compound 0.4 µM,0.116
same,relative viability,EHT 1864 + Foretinib; first compound 1.265 µM,0.115
same,relative viability,EHT 1864 + Foretinib; first compound 4 µM,0.0993
same,relative viability,EHT 1864 + Pictilisib; first compound 0.04 µM,0.425
same,relative viability,EHT 1864 + Pictilisib; first compound 0.1265 µM,0.342
same,relative viability,EHT 1864 + Pictilisib; first compound 0.4 µM,0.385
same,relative viability,EHT 1864 + Pictilisib; first compound 1.265 µM,0.41
same,relative viability,EHT 1864 + Pictilisib; first compound 4 µM,0.426
same,relative viability,EHT 1864; 0.04 µM,0.942
same,relative viability,EHT 1864; 0.1265 µM,0.865
same,relative viability,EHT 1864; 0.4 µM,0.961
same,relative viability,EHT 1864; 1.265 µM,0.931
same,relative viability,EHT 1864; 4 µM,0.924
